Tests used:
Tyrosinase [1] = target: T1, Tyrosinase (Agaricus bisporus, UniProt O42713); assay: Inhibition of mushroom tyrosinase using L-tyrosine as substrate pretreated for 5 mins followed by substrate addition measured over 30 mins by spectrophotometric method
T1 sequence (O42713 whole entry): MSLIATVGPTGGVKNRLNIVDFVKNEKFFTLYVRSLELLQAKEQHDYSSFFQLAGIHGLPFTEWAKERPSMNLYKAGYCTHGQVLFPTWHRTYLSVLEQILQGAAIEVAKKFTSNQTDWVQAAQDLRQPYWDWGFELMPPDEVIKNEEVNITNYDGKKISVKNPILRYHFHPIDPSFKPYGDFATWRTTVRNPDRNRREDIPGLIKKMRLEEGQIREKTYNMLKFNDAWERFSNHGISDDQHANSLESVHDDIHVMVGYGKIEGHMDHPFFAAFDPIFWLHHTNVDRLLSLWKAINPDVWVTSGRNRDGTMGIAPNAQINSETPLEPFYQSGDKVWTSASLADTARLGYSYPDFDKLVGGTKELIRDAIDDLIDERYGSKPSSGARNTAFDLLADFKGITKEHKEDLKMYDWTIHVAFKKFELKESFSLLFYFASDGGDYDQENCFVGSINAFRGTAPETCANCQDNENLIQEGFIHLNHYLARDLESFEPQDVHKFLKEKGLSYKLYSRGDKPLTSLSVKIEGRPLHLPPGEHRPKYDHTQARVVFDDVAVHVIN

Tyrosinase [2] = target: T1, Tyrosinase; assay: Inhibition of mushroom tyrosinase using L-DOPA as substrate measured at 1 min interval by spectrophotometric method
Tyrosinase [3] = target: T1, Tyrosinase; assay: Inhibition of mushroom tyrosinase

SMILES	IC50 (Tyrosinase [1]) [µM]	IC50 (Tyrosinase [2]) [µM]	IC50 (Tyrosinase [3]) [µM]
CC(=O)O[C@@H]1[C@@H](O)[C@@H](OC(C)=O)[C@H](Oc2c(-c3cc(O)c(O)c(O)c3)oc3cc(O)cc(O)c3c2=O)O[C@H]1C	520		
OC[C@H]1O[C@@H](Oc2c(O)cc(O)cc2O)[C@H](O)[C@@H](O)[C@@H]1O	410		
O=c1c(O)c(-c2ccc(O)c(O)c2)oc2cc(O)cc(O)c12 [QUERCETIN]	240		
COc1c(O)cc(-c2oc3cc(O)cc(O)c3c(=O)c2O[C@@H]2O[C@@H](C)[C@H](O)[C@@H](O)[C@H]2O)cc1O	310		
CC(=O)O[C@@H]1[C@@H](OC(C)=O)[C@@H](O)[C@H](Oc2c(-c3cc(O)c(O)c(O)c3)oc3cc(O)cc(O)c3c2=O)O[C@H]1C	180		
COc1c(O)cc(-c2oc3cc(O)cc(O)c3c(=O)c2O[C@@H]2O[C@@H](C)[C@H](OC(C)=O)[C@@H](O)[C@H]2O)cc1O	190		
C[C@@H]1O[C@@H](OC[C@H]2O[C@@H](Oc3c(-c4ccc(O)c(O)c4)oc4cc(O)cc(O)c4c3=O)[C@H](O)[C@@H](O)[C@@H]2O)[C@H](O)[C@H](O)[C@H]1O [RUTIN]	130	70	
C[C@@H]1O[C@@H](Oc2c(-c3ccc(O)c(O)c3)oc3cc(O)cc(O)c3c2=O)[C@H](O)[C@H](O)[C@H]1O [QUERCITRIN]	150		100
C[C@@H]1O[C@@H](Oc2c(-c3cc(O)c(O)c(O)c3)oc3cc(O)cc(O)c3c2=O)[C@H](O)[C@H](O)[C@H]1O	120		320
CC(=O)O[C@@H]1[C@@H](O)[C@@H](O)[C@H](Oc2c(-c3cc(O)c(O)c(O)c3)oc3cc(O)cc(O)c3c2=O)O[C@H]1C	280		
